Reference: PMC12643509, “High-throughput screens identify genotype-specific therapeutics for channelopathies” (JCI Insight, 2025)
“And” between values parts separate entries of the source, which are not always exact repeats. Equal entries are not always repeated.

Key:
wild-type KV11.1 = wild-type KV11.1 (Homo sapiens, UniProt Q12809)
WT Kv11.1 = WT Kv11.1 (Homo sapiens, UniProt Q12809); settings: 24 hour and washout, individual wells
Sequence of WT Kv11.1 (Q12809 whole entry): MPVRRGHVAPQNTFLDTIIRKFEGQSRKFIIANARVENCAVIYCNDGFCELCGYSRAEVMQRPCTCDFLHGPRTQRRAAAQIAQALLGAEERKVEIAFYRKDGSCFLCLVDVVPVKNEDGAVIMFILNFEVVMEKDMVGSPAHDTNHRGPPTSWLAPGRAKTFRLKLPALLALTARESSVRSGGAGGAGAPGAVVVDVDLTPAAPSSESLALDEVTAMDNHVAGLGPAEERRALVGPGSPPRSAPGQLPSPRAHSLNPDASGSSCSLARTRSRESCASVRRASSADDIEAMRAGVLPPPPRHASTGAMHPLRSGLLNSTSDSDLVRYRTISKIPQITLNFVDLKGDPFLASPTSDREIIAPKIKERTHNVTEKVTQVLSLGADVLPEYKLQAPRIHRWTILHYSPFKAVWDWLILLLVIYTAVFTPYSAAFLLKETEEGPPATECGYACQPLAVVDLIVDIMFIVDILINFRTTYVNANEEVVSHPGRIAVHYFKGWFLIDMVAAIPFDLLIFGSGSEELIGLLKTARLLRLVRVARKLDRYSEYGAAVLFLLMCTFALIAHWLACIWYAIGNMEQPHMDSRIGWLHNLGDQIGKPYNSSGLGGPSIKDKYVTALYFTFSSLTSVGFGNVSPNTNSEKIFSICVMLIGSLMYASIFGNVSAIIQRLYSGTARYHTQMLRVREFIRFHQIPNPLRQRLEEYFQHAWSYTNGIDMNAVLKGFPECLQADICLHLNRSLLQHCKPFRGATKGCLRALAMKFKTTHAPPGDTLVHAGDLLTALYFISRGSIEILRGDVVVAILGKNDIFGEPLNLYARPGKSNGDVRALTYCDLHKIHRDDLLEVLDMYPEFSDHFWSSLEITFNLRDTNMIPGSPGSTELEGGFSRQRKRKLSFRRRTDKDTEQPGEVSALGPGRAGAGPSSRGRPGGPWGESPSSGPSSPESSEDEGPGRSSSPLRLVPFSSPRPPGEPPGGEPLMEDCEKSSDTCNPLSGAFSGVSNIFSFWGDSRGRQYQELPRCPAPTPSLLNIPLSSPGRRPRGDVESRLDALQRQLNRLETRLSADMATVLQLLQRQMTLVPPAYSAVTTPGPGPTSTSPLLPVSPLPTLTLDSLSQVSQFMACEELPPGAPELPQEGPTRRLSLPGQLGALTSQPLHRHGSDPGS
Excerpt: plot of hits tested for 24-h our WT toxicity. Each point repres ents the med ia n robust Z score
after 24-hour treatm ent and washout in cells ex pressing WT.
robust Z scores be low bas eli ne function).
second ary screens w ere perform ed i n triplicate us ing 1 0 µ M drug treatme nt to assess: 1)
acute channel block, measur ed after a 15-minute inc ubati on with the drug present duri ng
recordi ngs; and 2) t oxicit y in W T channels, assesse d af t er a 24-hour drug ex posure fol low ed
(C) Tl+-measurements after 24-hour treatment and washout in HEK cells

Sequence of wild-type KV11.1 (Q12809 whole entry): as above

Row | Compound | inhibition of WT channels (wild-type KV11.1) | Changes in WT function (thallium flux) (WT Kv11.1)
1 | CCc1c(C)[nH]c2c1C(=O)C(CN1CCOCC1)CC2 (stereo not drawn) [Moban, moban] | did not inhibit WT channels | 
2 | OC[C@H]1O[C@H](O[C@]2(CCl)O[C@H](CCl)[C@@H](O)[C@@H]2O)[C@H](O)[C@@H](O)[C@H]1Cl [Sucralose, sucralose] | did not inhibit WT channels | 0.1161 and 0.1317 and 0.1214
